In patent publication EP0067666A1, “Salts of antimicrobial naphthyridine and quinoline compounds and their production” (priority 1981, dated 1982):
In brackets after ≈: the same amount, converted by molar mass. Like-named read-outs stand apart in the source and are kept apart here.

Key:
[1] = Lyophilization of the salts; format: physicochemical
Description: The unpredictable characteristics of the salts prepared from Compounds A and B are clear from consideration of the results reported in Table 1. These characteristics were considered in view of the necessary requirements (a-f) outlined above for preparing a useful parenteral dosage form. […] From the data in Table 1, the lactate salts appear to be useful; however, lactic acid cannot be consistently obtained in a satisfactory grade in presently available commercial forms and is therefore not useful. The choline and sodium salts were ruled out based on the pH of their respective solutions.

[2] = system: Klebsiella pneumoniae MGH-2; experiment: Acute mouse protection test; format: in vivo; conditions: subcutaneous, single dose given at time of challenge, compound B series
[3] = system: E. coli Vogel; experiment: Antibacterial activity, MIC; format: cell-based; conditions: Escherichia coli, based on content of compound B
[4] = system: Staph. aureus UC-76; experiment: Antibacterial activity, MIC; format: cell-based; conditions: based on content of compound B
[5] = system: Staph. aureus H 228; experiment: Antibacterial activity, MIC; format: cell-based; conditions: Staphylococcus aureus, H228, based on content of compound B
[6] = system: Staphylococcus aureus UC-76; experiment: Acute mouse protection test; format: in vivo; conditions: single dose given at time of challenge, compound B series
[7] = Two-way crossover oral trial, drug blood levels by disk agar diffusion microbiological assay; format: in vivo; conditions: Beagle dogs, single 25 mg/kg (parent compound equivalent) oral dose in hard gelatine capsules; compound B compared with compound D as the glutamate
Protocol: Drug blood levels were determined by a disk agar diffusion microbiological assay.

[8] = system: Escherichia coli Vogel; experiment: Acute mouse protection test; format: in vivo; conditions: Escherichia coli, single dose given at time of challenge, compound B series
[9] = system: Strep. faecalis MGH-2; experiment: Antibacterial activity, MIC; format: cell-based; conditions: Enterococcus faecalis, MGH2, based on content of compound B
[10] = system: Strep. pyogenes C-203; experiment: Antibacterial activity, MIC; format: cell-based; conditions: based on content of compound B
[11] = system: Strep. pneumoniae SV-1; experiment: Antibacterial activity, MIC; format: cell-based; conditions: Streptococcus pneumoniae, SV1, based on content of compound B
[12] = system: Pseudo. aeruginosa UI-18; experiment: Antibacterial activity, MIC; format: cell-based; conditions: based on content of compound B
[13] = system: Proteus retgeri M 1771; experiment: Antibacterial activity, MIC; format: cell-based; conditions: based on content of compound B
[14] = system: Entero cloacae MA 2646; experiment: Antibacterial activity, MIC; format: cell-based; conditions: based on content of compound B
[15] = system: Klebs. pneumoniae MGH-2; experiment: Antibacterial activity, MIC; format: cell-based; conditions: Klebsiella pneumoniae, MGH2, based on content of compound B

In the case of `CCn1cc(C(=O)O)c(=O)c2cc(F)c(N3CCNCC3)nc21` [B acetate], the lyophilization [1] is reported as “cannot be successfully lyophilized”.

In the case of `CCn1cc(C(=O)O)c(=O)c2cc(F)c(N3CCNCC3)nc21` [Compound B, 1-ethyl-6-fluoro-1,4-dihydro-4-oxo-7-(1-piperazinyl)-1,8-naphthyridine-3-carboxylic acid, reference compound], the “Single sc Dose PD50 (mg/kg) ± 95% Confidence Limits Klebsiella pneumoniae MGH-2” value [2] is reported as 2.6 ± 0.6 mg/kg, the MIC [3] is reported as 0.2 µg/mL (≈ 0.624 µM) and the “MIC µg/ml Staph. aureus UC-76” value [4] is reported as 0.2 µg/mL (≈ 0.624 µM). For the same compound, the MIC [5] was 3.1 µg/mL (≈ 9.68 µM), the ED50 ([6]; Staphylococcus aureus, UC76, po, oral, read-out: Single po Dose PD50 (mg/kg) ± 95% Confidence Limits Staphylococcus aureus UC-76) was 14 ± 7 mg/kg and the “Single sc Dose PD50 (mg/kg) ± 95% Confidence Limits Staphylococcus aureus UC-76” value ([6]; subcutaneous) was 7.4 ± 2.2 mg/kg. The drug half-life [7] was “no significant difference”, the peak blood level [7] was “no significant difference” and the ED50 ([8]; po, read-out: Single po Dose PD50 (mg/kg) ± 95% Confidence Limits Escherichia coli Vogel) was 3.1 ± 0.7 mg/kg. The ED50 ([8]; sc, subcutaneous, read-out: Single sc Dose PD50 (mg/kg) ± 95% Confidence Limits Escherichia coli Vogel) was 1.4 ± 0.4 mg/kg, the MIC [9] was 1.6 µg/mL (≈ 4.99 µM) and the “MIC µg/ml Strep. pyogenes C-203” value [10] was 3.1 µg/mL (≈ 9.68 µM). For the same compound, the MIC [11] was 3.1 µg/mL (≈ 9.68 µM), the “MIC µg/ml Pseudo. aeruginosa UI-18” value [12] was 0.8 µg/mL (≈ 2.5 µM) and the MIC [13] was 0.1 µg/mL (≈ 0.312 µM). For the same compound, the MIC [14] was 0.2 µg/mL (≈ 0.624 µM) and the MIC [15] was 0.1 µg/mL (≈ 0.312 µM).

For `CCn1cc(C(=O)O)c(=O)c2cc(F)c(N3CCNCC3)cc21` [A acetate], the lyophilization [1] was “cannot be successfully lyophilized”.
